From patent US20250066864A1, “METHODS FOR IDENTIFYING ADAR1 INHIBITORS, AND COMPOSITIONS AND METHODS OF USE IN TREATING CANCER” (The Wistar Institute of Anatomy and Biology, priority 2021, published 2025)

Tested on: IFN signaling pathway, HSC-4 squamous carcinoma cells
Assay: qRT-PCR of ISG expression in HSC-4 cells
Format: cell-based
Details: 10 μM, 12 hrs
Method: FIGS. 29A-29D Characterization of Compound #13 effects in cancer cells. […] Viability was examined using the Apo Tox-Glo assay system (Promega). Control, 0.3% DMSO. (FIG. 29B) Western blotting analysis of HeLa cells treated with Compound #13 (10 μM). […] (FIG. 29D) Activation of the IFN signaling pathway. HSC-4 squamous carcinoma cells were treated with Compound #13 at 10 μM (12 hrs). RNA samples were analyzed by qRT-PCR to monitor expression levels of ISGs.
Inhibition of ADAR1 mediated A-to-I editing of 3′UTR Alu dsRNAs activates the dsRNA sensing mechanism and induces IFNs (FIG. 2A). This activation of IFN signaling is required to overcome the tumor resistance to PD-1 based immunotherapy (FIG. 2B) (2), one of our motivations to identify ADAR1 inhibitors.

N#Cc1ccc(NC(=O)c2sc3ccccc3c2Cl)cc1 [Compound #13, 3-chloro-N-(4-cyanophenyl)-1-benzothiophene-2-carboxamide]
expression of ISGs: upregulated expression of known ISGs, MDA5, OAS1, ISG15, MX1, and MX2
